Experimental findings from patent US7531500B2, “Preventing airway mucus production by administration of EGF-R antagonists” (The Regents of the University of California, priority 1998, dated 2009) are described below.

For the assay, the system named is NCI-H292 cells. Put plainly: In situ hybridization for MUC5AC gene in NCI-H292 cells (Example 2). Type of assay: cell-based, human. The conditions noted are these: within 12 h. The procedure: Cell Culture. NCI-H292 cells, a human pulmonary mucoepidermoid carcinoma cell line, were grown in RPMI 1640 medium containing 10% fetal bovine serum, penicillin (100 U/ml), streptomycin (100 μg/ml) and Hepes (25 mM) at 37° C. in a humidified 5% CO2, water-jacketed incubator. Either 6-well culture plates or 8-chamber slides were used to culture the cells. When confluent, cells were incubated for 1 h with neutrophils (10^6 cells/ml) alone, TNFα alone (recombinant human TNFα, 20 ng/ml, Genzyme, Cambridge, Mass.), IL-8 (recombinant human IL-8, 10^−8 M, Genzyme) alone, fMLP (10^−8 M, Sigma, St. Louis, Mo.) alone, TNFα plus neutrophils, IL-8 plus neutrophils, fMLP plus neutrophils, hydrogen peroxide (H2O2, 200 μM), cigarette smoke solution or TGFα (recombinant human TGFα, 0.1-25 ng/ml, Calbiochem, San Diego, Calif.). The cells were then washed and incubated with fresh medium alone. Experiments were terminated at preselected times (for mRNA, 6 h and 12 h; for protein, 24 h). As controls, cells were incubated with medium alone for same time periods. […] NCI-H292 cells were incubated for 1 h with either neutrophils that had been incubated with TNFα (20 ng/ml) for 1 h and then washed with sterile PBS to avoid contamination with the supernatant (e.g., molecules released from neutrophils), or the NCI-H292 cells were incubated with supernatant only. […]

On to “TGFα: transforming growth factor alpha, EGF-R ligand (recombinant human; rat synthetic in vivo)”, for which the MUC5AC gene expression entry is listed as “up-regulated”.
